Converted amounts (≈) assume the structure as drawn.
Columns and labels:
[1] = test system: heart taken from a rabbit; assay: Coronaro-dilatory effects in vitro on isolated rabbit heart (Langendorff's technique); conditions: for Coronary output, Duration in mins.: duration of the variation in coronary output
Protocol: They were measured in vitro on a heart taken from a rabbit, according to Langendorff's technique. The terpenophenoxy alkylamines according to the invention are administered to the aortic canal at a constant volume of 1 cm^3 for 1 minute.
The following table indicates the increase in the coronary output and the duration of this variation, depending on the doses.

Staphylococcus aureus = assay: Bacteriostatic activity by the method of streaks in gelose media (minimum inhibitory concentration), Staphylococcus aureus; type: cell-based; conditions: Staphylococcus aureus (gram +ve)
Protocol: (§1) The bacteriostatic activity of the products according to the invention have been evaluated by the method of streaks in gelose media. This method comprises making increasing dilutions of the product to be tested, in nutritive gels poured in a Petri dish. The bacteria to be studied are introduced onto the geloses in parallel streaks by means of a platinum loop which has been immersed in a 24 hour old culture of the bacteria. […] The activity of the compounds has been studied vis a vis gram + ve (Staphylococcus aureus) and gram - ve (Escherichia coli) bacteria.

Escherichia coli = assay: Bacteriostatic activity by the method of streaks in gelose media (minimum inhibitory concentration), Escherichia coli; type: cell-based; conditions: Escherichia coli (gram -ve)
Protocol: as §1

[2] = Oryctolagus cuniculus, 1 min, dose 3 μg/cm^3, aortic canal, 1 cm^3 for 1 minute, increase (+), read-out: Coronary output, Variations in %
[3] = Oryctolagus cuniculus, 1 min, dose 10 μg/cm^3, aortic canal, 1 cm^3 for 1 minute, increase (+), read-out: Coronary output, Variations in %
[4] = Oryctolagus cuniculus, 1 min, dose 1 μg/cm^3, aortic canal, 1 cm^3 for 1 minute, increase (+), read-out: Coronary output, Variations in %

SMILES | activation at 3 µg/mL [1, 2] [%] | activation at 10 µg/mL [1, 3] [%] | Coronary output, Duration in mins. ([1]; dose 3 μg/cm^3) [min] | Coronary output, Duration in mins. ([1]; dose 10 μg/cm^3) [min] | MIC (Staphylococcus aureus) [mg/L] | MIC (Escherichia coli) [mg/L] | activation at 100 µg/mL ([1]; Oryctolagus cuniculus, 1 min, dose 100 μg/cm^3, aortic canal, 1 cm^3 for 1 minute, increase (+), read-out: Coronary output, Variations in %) [%] | Coronary output, Duration in mins. ([1]; dose 100 μg/cm^3) [min] | activation at 1 µg/mL [1, 4] [%] | Coronary output, Duration in mins. ([1]; dose 1 μg/cm^3) [min]
Cc1cc(OCCNCCO)c(C2CC3CCC2(C)C3(C)C)cc1C (centres unmarked) [Example 7, N-hydroxyethyl-2-(2'-isobornyl-4',5'-dimethylphenoxy) ethylamine] | 51 | 109 | > 15 | > 15 | 10 (≈ 28.9 µM) | 30 (≈ 86.8 µM) |  |  |  | 
Cc1ccc(OCC(O)CN)c(C2CC3CC2C(C)C3(C)C)c1 (centres unmarked) [Example 12, 1-amino 3-(2'-isocamphyl-4'-methylphenoxy) propan-2-ol] |  |  |  |  | 7.5 (≈ 23.6 µM) | 5 (≈ 15.7 µM) | 31 | 4 |  | 
Cc1cc(OCC(O)CNC(C)C)c(C2CC3CC2C(C)C3(C)C)cc1C (centres unmarked) [Example 6, 3-(2'-isocamphyl-4',5'-dimethylphenoxy)-1-isopropylamino propan-2-ol] | 36 | 66 | 15 | 9 | 5 (≈ 13.4 µM) |  |  |  |  | 
Cc1cc(OCCN)c(C2CC3CCC2(C)C3(C)C)cc1Br (centres unmarked) [Example 2, 2-(2'-isobornyl-4'-bromo-5'-methylphenoxy) ethylamine] | 39 |  | > 15 |  | 5 (≈ 13.6 µM) | 10 (≈ 27.3 µM) |  |  | 23 | > 15
Cc1cc(OCC(O)CN)c(C2CC3CC2C(C)C3(C)C)cc1C (centres unmarked) [Example 5, 3-(2'-isocamphyl-4',5'-dimethylphenoxy)-1-amino propan-2-ol] | 70 |  | > 15 |  | 5 (≈ 15.1 µM) | 5 (≈ 15.1 µM) |  |  | 13 | 2
Cc1cc(OCC(O)CNC(C)C)c(C2CC3CCC2(C)C3(C)C)cc1C (centres unmarked) [Example 11, 1-isopropylamino 3-(2'-isobornyl-4',5'-dimethylphenoxy) propan-2-ol] | 72 | 210 | 5 | 12 |  |  |  |  |  | 
CC(C)NCC(O)COc1ccccc1C1CC2CCC1(C)C2(C)C (centres unmarked) [Example 9, 1-Isopropylamino 3-(2'-isobornylphenoxy) propan-2-ol] | 95 | 102 | 4 | 4 |  |  |  |  |  | 
Cc1cc(OCCN)c(C2CC3CCC2(C)C3(C)C)cc1C (centres unmarked) [Example 1, 2-(2'-isobornyl-4',5'-dimethylphenoxy) ethylamine] | 37 | 55 | 5 | 5 | 5 (≈ 16.6 µM) | 7.5 (≈ 24.9 µM) |  |  |  | 
Cc1cc(OCC(O)CN)c(C2CC3CCC2(C)C3(C)C)cc1C (centres unmarked) [Example 4, 3-(2'-isobornyl-4,5'-dimethylphenoxy)-1-amino propan-2-ol] | 127 | 140 | 15 | 12 | 5 (≈ 15.1 µM) | 5 (≈ 15.1 µM) |  |  |  | 
Cc1cc(OCCN)c(C2CC3CCC2(C)C3(C)C)cc1Cl (centres unmarked) [Example 10, 2-(2-isobornyl-4-chloro-5-methylphenoxy) ethylamine] | 60 |  | > 15 |  | 7.5 (≈ 23.3 µM) | 7.5 (≈ 23.3 µM) |  |  | 34 | > 15
CC1(C)C2CCC1(C)C(c1cc(Br)ccc1OCCN)C2 (centres unmarked) [Example 3, 2-(2'-isobornyl-4'-bromophenoxy) ethylamine] | 36 |  | > 15 |  | 7.5 (≈ 21.3 µM) | 5 (≈ 14.2 µM) |  |  | 4 | 3
CC1(C)C2CCC1(C)C(c1ccccc1OCC(O)CN)C2 (centres unmarked) [Example 8, 1-Amino 3-(2'-isobornylphenoxy) propan-2-ol] | 24 | 63 | 6 | 12 | 20 (≈ 65.9 µM) | 7.5 (≈ 24.7 µM) |  |  |  | 
